As usually defined, the AUC(0-inf) is the area under the concentration-time curve extrapolated to infinity. Lower therefore signals low exposure. As a reminder, the AUC(0-t) is exposure summed from dosing to a finite time, without extrapolation to infinity. As a reminder, the Cmax is the maximum level reached in the sampled fluid or tissue. For orientation: half-life means how long it takes for the measured level to halve. Low values mean rapid decline, high ones slow decline. For orientation: Tmax means the time from dosing to the highest level. As a reminder, the solubility is how much of the substance goes into solution per volume. The low end stands for a poorly soluble substance, the high end for a readily soluble substance.

Data set [1] can be described thus: Drug metabolism test: pharmacokinetics in mice. Format: in vivo, ICR mice. The note with it: for MRT last: read-out: MRT0-t. As to the method:
(§1) 16 healthy male ICR mice with 18-22 g of body weight were used. Drugs were employed by intravenous or gavage administration, administration doses were 5 mg and 25 mg/kg, administration volume was 10 mL/kg. Fasted for 12 h before test with free access to water. Uniformly fed at 2 h after administration. 0.3 mL blood was drawn through mice post-glomus venous plexus according to set time points, placed in heparinized test tube, centrifuged at 3000 r/min for 10 min, separated plasma, frozen in refrigerator at −20° C. When detected, samples were treated according to plasma sample treatment method, drug concentration in plasma was determined by LC-MS method, and calculated its pharmacokinetic parameters.

The next data set can be described thus: physchem. In kind it is physicochemical. To be noted: for solubility at 3 days: pH 1.2, simulated gastric fluid, thermodynamic from solid. How it is done:
3-5 mg tested compound was added to 0.5 mL pH=1.2 HCL aqueous solution, shook for 3 days in a shaker, samples were centrifuged at 10000 r/min for 5 min, aspirated […] supernatant to 50 mL volumetric flask, added water and metered volume to the mark to make sample solution; precisely weighted 2.6 mg sample to 50 mL volumetric flask, added an appropriate amount of methanol to dissolve. Added water and metered volume to the mark, shook up to give control sample solution. Loaded 20 μL sample solution and control sample solution respectively, tested for liquid phase. Calculated as follows: Solubility (mg/mL)=C(control)*25*A(sample)/A(control)
C(control): the concentration of control sample
A(sample): peak area of liquid phase of sample solution
A(control): peak area of liquid phase of control sample solution

A short description of data set [2]: Tissue distribution test in mice. In kind it is in vivo. The note with it: orally administrated 25 mg/kg. As to the method:
as §1
After compound 1 was orally administrated to mice (25 mg/kg), the concentrations of the compound in […], lung, brain and plasma at different time was shown as FIG. 1.

In data set [3] the test system is Mycobacterium tuberculosis strain H37Rv. Kind of data set: Activity test for Mycobacterium tuberculosis (MIC, liquid medium, 96-well microplate). In kind it is cell-based. To be noted: for MIC: Mycobacterium tuberculosis, liquid medium, 37° C., read-out: Minimal inhibitory concentration for H37Rv; for activity for H37Rv, times as that of PA-824: relative to PA-824; for MIC for H37Rv, times as that of ethambutol: relative to ethambutol. As to the method:
Tested Mycobacterium tuberculosis strain H37Rv was transferred to liquid medium, cultured for 2 weeks at 37° C., drew a little culture liquid of bacterium and placed into 4 mL liquid medium, added 10˜20 sterile glass bead of 2˜3 diameter, shook for 20˜30S, absolute-rest precipitated for 10˜20 min, aspirated bacterium suspension supernatant, turbidity was adjusted to 1 Maxwell unit with liquid medium, equivalent to 1×10^7CFU/mL for use. Each drug was dissolved to 1 mg/mL by adding an appropriate amount of DMSO, filtered through 0.22 μm filter. Again diluted to the required experimental concentration with liquid medium. The final concentration of test drugs were set as follows: 0.001 μg/mL, 0.002 μg/mL, 0.004 μg/mL, 0.008 μg/mL, 0.015 μg/mL, 0.03 μg/mL, 0.06 μg/mL, 0.12 μg/mL, 0.25 μg/mL, 0.5 μg/mL, 1 μg/mL, 2 μg/mL, 4 μg/mL, 8 μg/mL and 16 μg/mL, there totally are 15 concentration gradients. 100 μL of each above-mentioned drug solution was added to 96-well microplate, further added 100 μL […] bacteria liquid so that drug concentration could reach the set final concentration, cultured at 37° C. The same drug dilution was done in triplate in parallel, control group didn't added drug, inoculation amount was set to 100%, 10% and 1% respectively. Minimal inhibitory concentration (MIC) for Mycobacterium tuberculosis by each drug was observed, and compared with MIC results of first-line antituberculosis drug ethambutol and PA-824 in clinical research phase at the same time.

[4] abbreviates: male, ICR, mouse, IV (5 mg/kg), plasma.
The mark [5] stands for this setting: male, ICR, mouse, PO (25 mg/kg), plasma.

Converted amounts (≈) assume the structure as drawn. Where two headings read alike, the source gives them in different places.

`O=C(CN1CCC(Oc2ccc(OC(F)(F)F)cc2)CC1)N[C@@H]1COc2nc([N+](=O)[O-])cn2C1` [Compound 1, (S)-N-(6,7-dihydro-2-nitro-5H-imidazo [2,1-b][1,3]oxazin-6-yl)-2-(4-(4-(trifluoromethoxy)phenoxy)piperid-1-yl)acetamide] came in with a CLz in data set [1] (IV (5 mg/kg)) of 10.7 mL/min/kg. In addition, in data set [1] (setting [4]), the AUC(0-inf) is 7860 ng·h/mL, the AUC(0-t) came out at 7850 ng·h/mL, the Cmax was determined as 3880 ng/mL and the half-life was 2.8 h. Moreover, the MRT last in data set [1] (setting [4]) is 3.6 h. Besides, in data set [1] (setting [5]), the AUC(0-inf) was 40200 ng·h/mL, the AUC(0-t) amounted to 40100 ng·h/mL, the Cmax turned out to be 4790 ng/mL and the Tmax turned out to be 1 h. Besides, in data set [1] (setting [5]), the half-life was 2.7 h and the MRT last was 5 h. Also, in data set [1] (male, ICR, mouse, plasma, IV (5 mg/kg), read-out: Vz), the Vd was determined as 2.3 L/kg. In data set [1] (male, ICR, mouse, plasma, PO 25 mg/kg vs IV 5 mg/kg, read-out: F (oral bioavailability)), the bioavailability stood at 102%. Besides, in “physchem”, the “water-solubility, times as that of PA-824” value (“water-solubility, times” for short) turned out to be 79 times and the concentration in solution (solubility at 3 days) came to 746 µg/mL (≈ 1540 µM). The “site of major distribution” value in data set [2] is “lung and spleen”. Also, in data set [2] (FIG. 1), the tissue distribution property result is given as “good tissue distribution property”. Besides, in data set [3], the MIC turned out to be 0.03 µg/mL (≈ 0.0618 µM); the “activity for H37Rv, times as that of PA-824” value (“activity for H37Rv, times” for short) is listed as 4 times; the “MIC for H37Rv, times as that of ethambutol” value (shortened to “MIC for H37Rv, times as that”) is on record as 16 times.
With `O=C(CN1CCC(Oc2ccc(OC(F)(F)F)c(F)c2)CC1)N[C@@H]1COc2nc([N+](=O)[O-])cn2C1` [Compound 3, 2-(4-(3-fluoro-4-(trifluoromethoxy)phenoxy)piperid-1-yl)-N-((S)-6,7-dihydro-2-nitro-5H-imidazo[2,1-b][1,3]oxazin-6-yl)acetamide], in data set [3], the MIC was 0.06 µg/mL (≈ 0.119 µM); the “activity for H37Rv, times” value came out at 2 times; the “MIC for H37Rv, times as that” value is recorded as 8 times.
The matching figures for `CC(C)Oc1ccc(OC2CCN(CC(=O)N[C@@H]3COc4nc([N+](=O)[O-])cn4C3)CC2)cc1` [Compound 14]: 0.06 µg/mL (≈ 0.131 µM), 2 times and 8 times.
The like results for `O=C(CN1CCC(Oc2ccc(OCCOC3CC3)cc2)CC1)N[C@@H]1COc2nc([N+](=O)[O-])cn2C1` [Compound 16, (S)-2-(4-(4-(2-(cyclopropoxy)ethoxy)phenoxy)piperid-1-yl)-N-(2-nitro-6,7-dihydro-5H-imidazo [2,1-b][1,3]oxazin-6-yl)acetamide] were, in that order, 0.03 µg/mL (≈ 0.0598 µM), 4 times and 16 times.
`O=C(CN1CCN(Cc2ccc(OC(F)(F)F)cc2)CC1)N[C@@H]1COc2nc([N+](=O)[O-])cn2C1` [Compound 17, (S)-N-(6,7-dihydro-2-nitro-5H-imidazo [2,1-b][1,3]oxazin-6-yl)-2-(4-(4-(trifluoromethoxy)benzyl)piperazin-1-yl)acetamide]: in “physchem”, the “water-solubility, times” value was determined as 155 times and the solubility at 3 days was 1460 µg/mL (≈ 3010 µM). In data set [3], the MIC was 0.12 µg/mL (≈ 0.248 µM).
On to `O=C(CCN1CCC(Oc2ccc(OC(F)(F)F)cc2)CC1)N[C@@H]1COc2nc([N+](=O)[O-])cn2C1` [Compound 22, (S)-N-(6,7-dihydro-2-nitro-5H-imidazo [2,1-b][1,3]oxazin-6-yl)-3-(4-(4-(trifluoromethoxy)phenoxy)piperid-1-yl)propanamide], for which, in the data set “physchem”, the “water-solubility, times” value was 72 times and the solubility at 3 days is 677 µg/mL (≈ 1360 µM). Also, in data set [3], the MIC was 0.06 µg/mL (≈ 0.12 µM); the “activity for H37Rv, times” value amounted to 2 times; the “MIC for H37Rv, times as that” value came out at 8 times.
For the compound `O=C(CCCN1CC(Oc2ccc(OC(F)(F)F)cc2)C1)N[C@@H]1COc2nc([N+](=O)[O-])cn2C1` [Compound 26, 4-(3-(4-(trifluoromethoxy)phenoxy)azetidin-1-yl)-N-((S)-6,7-dihydro-2-nitro-5H-imidazo [2,1-b][1,3]oxazin-6-yl)butyramide], in “physchem”, the “water-solubility, times” value came to 90 times and the concentration in solution (solubility at 3 days) was 846 µg/mL (≈ 1740 µM). In addition, in data set [3], the MIC was determined as 0.03 µg/mL (≈ 0.0618 µM); the “activity for H37Rv, times” value is reported as 4 times; the “MIC for H37Rv, times as that” value stood at 16 times.
`O=[N+]([O-])c1cn2c(n1)OC[C@@H](OCc1ccc(OC(F)(F)F)cc1)C2` [PA-824, reference compound] came in with a solubility at 3 days in the data set “physchem” of 9.4 µg/mL (≈ 26.2 µM). Besides, the MIC in data set [3] stood at 0.12 µg/mL (≈ 0.334 µM).
As to `CC[C@@H](CO)NCCN[C@@H](CC)CO` [ethambutol, reference compound], in data set [3], the MIC was 0.5 µg/mL (≈ 2.45 µM).

(Values after patent US8563547B2, “(6,7-dihydro-2-nitro-5H-imidazol[2,1-b][1,3]oxazin-6-yl) amide compounds, preparation methods and uses thereof” (Shanghai Sun-Sail Pharmaceutical Science & Technology Co., …, priority 2010, dated 2013).)
